Experimental data: ChEMBL document CHEMBL5674860, “Optimized Dual-Glo Assay to identify co-culture-induced drug vulnerabilities in 3D CRC models” (2024)

Assays:
Assay type in all cases: functional, Homo sapiens
Set-up in all cases: dose or concentration left out as unconfirmed
Colon cancer organoid [1] = assay: Optimized Dual-Glo assay to identify co-culture induced drug vulnerabilities using donated chemical probes and chemogenomics kinase set in O20 CRC organoid and F20 CAF mono and co-culture. […] Cell viability is reported both mono and co-culture models.
Colon cancer organoid [2] = assay: Optimized Dual-Glo assay to identify co-culture induced drug vulnerabilities using donated chemical probes and chemogenomics kinase set in O14 CRC organoid and F14 CAF mono and co-culture. […] Cell viability is reported both mono and co-culture models.
Colon cancer organoid [3] = assay: Optimized Dual-Glo assay to identify co-culture induced drug vulnerabilities using donated chemical probes and chemogenomics kinase set in O06 CRC organoid and F06 CAF mono and co-culture. […] Cell viability is reported both mono and co-culture models.
[4] = Culture type Co-Culture, Transduced with Lucferase2-P2A-EGFP lentivirus
[5] = Culture type Co-Culture, Transduced with Renilla-dsRed lentivirus
[6] = Culture type Mono-Culture, Transduced with Lucferase2-P2A-EGFP lentivirus
[7] = Culture type Mono-Culture, Transduced with Renilla-dsRed lentivirus

Row | Compound | Cell Viability (Colon cancer organoid [1]; [4]) [%] | Cell Viability (Colon cancer organoid [1]; [5]) [%] | Cell Viability (Colon cancer organoid [1]; [6]) [%] | Cell Viability (Colon cancer organoid [1]; [7]) [%] | Cell Viability (Colon cancer organoid [2]; [4]) [%] | Cell Viability (Colon cancer organoid [2]; [5]) [%] | Cell Viability (Colon cancer organoid [2]; [6]) [%] | Cell Viability (Colon cancer organoid [2]; [7]) [%] | Cell Viability (Colon cancer organoid [3]; [4]) [%] | Cell Viability (Colon cancer organoid [3]; [5]) [%] | Cell Viability (Colon cancer organoid [3]; [6]) [%] | Cell Viability (Colon cancer organoid [3]; [7]) [%]
1 | NS(=O)(=O)c1cc(NC(=O)Cc2ccccc2)ccc1Oc1cccc(Cl)c1 [BAY-1797] | 89.0927 | 86.996 | 102.238 | 103.793 | 108.747 | 112.127 | 131.361 | 106.475 | 120.23 | 167.635 | 96.4062 | 112.706
2 | COc1nc2ccc([C@@](O)(c3ccccc3)C3CCN(C(C)=O)CC3)cc2c(Cl)c1Cc1ccc(-n2cccn2)cc1 [JNJ-54119936] | 65.101 | 118.395 | 94.7218 | 120.218 | 91.6435 | 104.692 | 80.3234 | 104.355 | 98.9754 | 75.6952 | 103.766 | 113.997
3 | COc1c(OCCCN2CCOCC2)ccc2c1N=C(NC(=O)c1cnc(N)nc1)N1CCN=C21 [COPANLISIB] | 2.276 | 117.524 | 0.6907 | 109.388 | 3.879 | 63.1617 | 2.323 | 50.5605 | 1.487 | 40.0213 | 1.127 | 24.3347
4 | COc1ccc(CCc2nc3cc(-c4c(C)noc4C)ccc3n2C[C@H](C)N2CCOCC2)cc1Cl | 95.7417 | 133.846 | 83.4803 | 106.755 | 90.4848 | 144.282 | 124.855 | 138.359 | 78.634 | 97.126 | 66.152 | 156.889
5 | CCN(CCO)CCCOc1ccc2c(Nc3cc(CC(=O)Nc4cccc(F)c4)[nH]n3)ncnc2c1 [DEFOSBARASERTIB] | 5.365 | 225.013 | 11.3206 | 105.29 | 15.638 | 174.95 | 26.1499 | 95.9515 | 10.7234 | 183.999 | 3.3988 | 94.753
6 | Nc1ncnc2c1ccn2[C@@H]1O[C@H]([C@H](O)c2ccccc2)[C@@H](O)[C@H]1O | 28.437 | 179.519 | 41.1766 | 89.3267 | 19.223 | 140.259 | 27.9797 | 80.8035 | 22.7938 | 108.338 | 39.3105 | 99.7719
7 | Cn1cc(Cl)c2c(Oc3c(F)cc(Nc4cc(Cl)nc(N)n4)cc3F)ccnc21 [BAY-4900] | 91.184 | 109.2 | 84.5951 | 91.9324 | 109.877 | 85.9396 | 108.551 | 92.3665 | 121.536 | 149.241 | 59.0633 | 101.592
8 | COc1c(C)cc(NC(=O)c2nn(Cc3ccc(F)cc3)c3c2CN(C(=O)c2ccc[nH]2)C[C@]3(C)C(N)=O)cc1C | 106.451 | 95.1299 | 138.387 | 102.921 | 89.068 | 129.679 | 87.8638 | 102.007 | 66.5012 | 112.674 | 87.4341 | 110.624
9 | CN(C)CC#Cc1ccc(OCCCc2sc(N3CCc4cccc(C(=O)Nc5nc6ccccc6s5)c4C3)nc2C(=O)O)c(F)c1 [A-1155463] | 1.175 | 177.943 | 3.867 | 58.9374 | 48.5807 | 127.556 | 26.2999 | 75.159 | 0.3385 | 128.541 | 0.4136 | 37.2528
10 | O=C(Nc1cccnn1)N1CCC(=Cc2cccc(Oc3ccc(C(F)(F)F)cn3)c2)CC1 | 75.4997 | 114.419 | 100.525 | 97.4491 | 80.0964 | 115.877 | 79.6396 | 77.8588 | 113.161 | 193.053 | 80.1285 | 90.1757
11 | CN1CCN(c2ccnc(NCCc3ccccc3)n2)CC1 [TP-040n] | 67.1911 | 97.5889 | 115.175 | 123.14 | 93.1561 | 99.6193 | 147.697 | 101.671 | 79.4477 | 81.2059 | 106.155 | 134.56
12 | CNC(=O)Nc1ccc(-c2nc(N3CC4CCC(C3)O4)c3cnn(C4CCC5(CC4)OCCO5)c3n2)cc1 | 5.834 | 97.6391 | 5.978 | 53.3135 | 9.5061 | 63.2179 | 14.6121 | 40.9027 | 4.885 | 48.532 | 5.396 | 31.9288
13 | CCCc1cc(C)[nH]c(=O)c1CNC(=O)c1cc(-c2ccnc(N3CCN(C)CC3)c2)cc2c1cnn2C(C)C | 55.9892 | 146.305 | 86.0915 | 120.133 | 90.4891 | 115.464 | 111.507 | 115.721 | 75.6598 | 125.188 | 109.33 | 104.205
